Legend:
[1] = system: MNK45-human gastric cancer; test: Antiproliferative effect in tumor cell culture (CYQuant intracellular DNA, 72 hours), MNK45; format: cell-based
Method: (§1) For the execution of the assay, the compounds are diluted in DMSO 100% (v/v) at a concentration of 1000 μM and subsequently diluted in a Sodium Chloride solution 0.9% to obtain the storage solutions of interest for use in the assays. The final concentration of interest will be directly diluted in the cell culture medium. For the assay there are used the following tumor cell lineages: PC3-human prostate cancer cells; LNCAP-human prostate cancer cells; DU145-human prostate cancer; MNK45-human gastric cancer and RT4-human bladder cancer cells. The tumor cell lineages are maintained in culture according to standard procedures established by the Cell Bank of Rio de Janeiro (lineage place of origin). For the assay, the tumor cells are seeded in the concentration of 10.000 cells per well (final volume of the reaction of […]), the plate is incubated for 8 hours, for the cells to adhere to the wall of the wells. After this period, the plate is divided in groups: • (a) test group: […] of the samples were added (test compound) in the concentrations of interest; • (b) positive control group: […] of culture medium were added (100% of cell proliferation); • (c) negative control group: 200 mL of culture medium and […] of the vehicle used were added to dilute the compounds (without cells—zero proliferation); • (d) control group: […] were added of the vehicle used to dilute the compounds. This group is important to evaluate whether the vehicle used interferes in the cell proliferation. OBSERVATION: the treatment with the concentrations of samples (test compounds) and of the controls are carried out in triplicate. Incubate the plate for 72 hours in a CO2 kiln at 37° C. After the incubation period, add […]/well of the solution with DNA marker from the CYQuant Kit and incubate the plate, for 60 minutes, in a CO2 incubator at 37° C. The fluorescence intensity is determined using a fluorescence microplate reader with 485 nm excitation and 530 nm emission detection. The results obtained were normalized relative to the positive control group (100% proliferation). For the compounds there are prepared the storage solutions in the concentrations of: 100 nM, 1 μM, 3 μM, 5 μM, 10 μM and 30 μM (DMSO 10% v/v). While the final concentrations in the test are of: 10 nM, 100 nM, 300 nM, 500 nM, 1000 nM and 3000 nM (in DMSO 1% v/v).

PDE5A1 enzyme = target: T1, PDE5A1 enzyme (Homo sapiens, UniProt O76074); test: In vitro inhibition of human phosphodiesterase enzyme 5 (BPS Bioscience PDE5A1 assay kit, fluorescence polarization); format: biochemical
T1 construct: purchased BPS Bioscience 60350
Method: The evaluation of the compound is studied using BPS Bioscience enzyme assay kit (catalogue 60350). The PDE5A1 Assay kit is designed for identification of PDE5A1 inhibitors using fluorescence polarization. The assay is based on the binding of a fluorescent nucleotide monophosphate generated by PDE5A1 enzyme to the binding agent.
In this methodology only two simple steps on a microtiter plate are required for PDE5A1 reactions. First, the fluorescently labeled cGMP is incubated with PDE5A1 for 1 hour. Second, the binding agent is added to the reaction mixture to produce a change in fluorescent polarization that can then be measured using a fluorescence reader equipped for the measurement of fluorescence polarization.
For the assay the storage reagent FAM-Cyclic-3′, 5′-GMP (20 μM) is diluted with PDE assay buffer to achieve the solution with a […] concentration; the PDE5A1 enzyme is thawed and diluted with the PDE buffer obtaining a PDE5A1 solution at 10 pg/mL.
The assay compounds are diluted with DMSO 100% (v/v) at a concentration of 1000 μM and subsequently diluted in a Sodium chloride 0.9% solution to obtain a curve of concentrations of interest for the assay. The compounds are diluted in concentrations of: 10 nM, 30 nM, 50 nM, 100 nM, 300 nM, 500 nM, 1 μM, 3 μM, 5 μM (DMSO 10% v/v).
The study is comprised of groups: (i) substrate control; (ii) positive control (KIT); (iii) samples in several concentrations; (iv) tadalafil (comparative control). Each parameter (group) is triple labeled.
For the 4 groups there is added, to each microplate well, […] of the FAM-Cyclic-3′ reagent, 5′-GMP (200 μM).
To the substrate control group there is added, to each well, […] of vehicle (DMSO 10% v/v) and […] PDE Buffer.
To the positive control group there is added, to each well, […] of vehicle (DMSO 10% v/v).
To the tadalafil group: there is added […] of the solution in the concentrations of interest.
To the test group there is added […] of the sample solution (test compound)
OBSERVATION: the parameters tested are in triplicate.
To begin the reaction, add […] of the PDE5A1 enzyme (diluted as described above) to the microplate wells designated as Positive Control and Samples (test and tadalafil), and incubate the microplate, for 1 hour, at a temperature of 25° C.
After the incubation period, the reaction is interrupted by the addition, in all the wells, of […] of the binding agent solution and the microplate is incubated for 30 minutes, under light stirring, at room temperature. The reading of the microplate is carried out in Polarized Fluorescence (475-495 nm—excitation and 518-538 nm—emission detection) 500 nanoseconds integration time.

[2] = system: LNCAP-human prostate cancer cells; test: Antiproliferative effect in tumor cell culture (CYQuant intracellular DNA, 72 hours), LNCAP; format: cell-based; conditions: for % Cell Proliferation Inhibition (intracellular DNA) LNCAP (average ± E.P.M.): 72 hours
Method: as §1

[3] = system: RT4-human bladder cancer cells; test: Antiproliferative effect in tumor cell culture (CYQuant intracellular DNA, 72 hours), RT4; format: cell-based; conditions: for % Cell Proliferation Inhibition (intracellular DNA) RT4 (average ± E.P.M.): 72 hours
Method: as §1

[4] = system: DU145-human prostate cancer; test: Antiproliferative effect in tumor cell culture (CYQuant intracellular DNA, 72 hours), DU145; format: cell-based; conditions: for % Cell Proliferation Inhibition (intracellular DNA) DU145 (average ± E.P.M.): 72 hours
Method: as §1

[5] = system: PC3-human prostate cancer cells; test: Antiproliferative effect in tumor cell culture (CYQuant intracellular DNA, 72 hours), PC3; format: cell-based; conditions: for % Cell Proliferation Inhibition (intracellular DNA) PC-3 (average ± E.P.M.): 72 hours
Method: as §1

SMILES: CC(CO)N1CC(=O)N2C(=C(c3c[nH]c4ccccc34)OC2c2ccc3c(c2)OCO3)C1=O (mixture of isomers) [BL-380, (R)-3-(benzo[d][1,3]dioxol-5-yl) -7-((R)-1-hydroxypropan-2-yl)-1-(1H-indole-3-yl)-6,7-dihydro-3H-oxazole[3,4-a]pyrazine-5,8-dione with (S)-3-(benzo[d][1,3]dioxol-5-yl)-7-((R)-1-hydroxypropan-2-yl)-1-(1H-indole-3-yl)-6,7-dihydro-3H-oxazole[3,4-a]pyrazine-5,8-dione]
- % Cell Proliferation Inhibition (intracellular DNA) MNK45 (average ± E.P.M.) ([1]; 100 nM, 0.1 µM): 7 ± 2%
- % Cell Proliferation Inhibition (intracellular DNA) MNK45 (average ± E.P.M.) ([1]; 300 nM, 0.3 µM): 0%
- % Cell Proliferation Inhibition (intracellular DNA) MNK45 (average ± E.P.M.) ([1]; 500 nM, 0.5 µM): 0%
- % Cell Proliferation Inhibition (intracellular DNA) MNK45 (average ± E.P.M.) ([1]; 1000 nM, 1 µM): 0%
- % Cell Proliferation Inhibition (intracellular DNA) MNK45 (average ± E.P.M.) ([1]; 3000 nM, 3 µM): 16 ± 5%
- % of Inhibition (PDE5A1) (PDE5A1 enzyme; 10 nM): 0%
- concentration as from which PDE5 inhibition was observed (PDE5A1 enzyme; 10 nM to 5000 nM tested): ≥ 300 nM
- % of Inhibition (PDE5A1) (PDE5A1 enzyme; 30 nM): 0%
- % of Inhibition (PDE5A1) (PDE5A1 enzyme; 50 nM): 0%
- % of Inhibition (PDE5A1) (PDE5A1 enzyme; 100 nM): 0%
- % of Inhibition (PDE5A1) (PDE5A1 enzyme; 300 nM): 15 ± 3%
- % of Inhibition (PDE5A1) (PDE5A1 enzyme; 500 nM, 0.5 µM): 25 ± 3%
- % of Inhibition (PDE5A1) (PDE5A1 enzyme; 1000 nM, 1 µM): 55 ± 4%
- % of Inhibition (PDE5A1) (PDE5A1 enzyme; 3000 nM, 3 µM): 65 ± 2%
- % of Inhibition (PDE5A1) (PDE5A1 enzyme; 5000 nM): 78 ± 1%
- PDE5 inhibition, result in words (PDE5A1 enzyme; over the concentrations tested): capable of inhibiting the PDE5 in a dose-dependent manner
- % Cell Proliferation Inhibition (intracellular DNA) LNCAP (average ± E.P.M.) ([2]; 10 nM, 0.01 µM): 26 ± 10%
- % Cell Proliferation Inhibition (intracellular DNA) LNCAP (average ± E.P.M.) ([2]; 100 nM, 0.1 µM): 12 ± 3%
- % Cell Proliferation Inhibition (intracellular DNA) LNCAP (average ± E.P.M.) ([2]; 300 nM, 0.3 µM): 29 ± 6%
- % Cell Proliferation Inhibition (intracellular DNA) LNCAP (average ± E.P.M.) ([2]; 500 nM, 0.5 µM): 27 ± 2%
- % Cell Proliferation Inhibition (intracellular DNA) LNCAP (average ± E.P.M.) ([2]; 1000 nM, 1 µM): 37 ± 2%
- % Cell Proliferation Inhibition (intracellular DNA) LNCAP (average ± E.P.M.) ([2]; 3000 nM): 48 ± 6%
- antiproliferative effect, result in words ([2]; LNCAP prostate cancer tumor lineage): antiproliferative effect
- % Cell Proliferation Inhibition (intracellular DNA) RT4 (average ± E.P.M.) ([3]; 100 nM, 0.1 µM): 8 ± 6%
- % Cell Proliferation Inhibition (intracellular DNA) RT4 (average ± E.P.M.) ([3]; 300 nM, 0.3 µM): 5 ± 5%
- % Cell Proliferation Inhibition (intracellular DNA) RT4 (average ± E.P.M.) ([3]; 500 nM, 0.5 µM): 3 ± 5%
- % Cell Proliferation Inhibition (intracellular DNA) RT4 (average ± E.P.M.) ([3]; 1000 nM, 1 µM): 3 ± 1%
- % Cell Proliferation Inhibition (intracellular DNA) RT4 (average ± E.P.M.) ([3]; 3000 nM, 3 µM): 58 ± 4%
- antiproliferative effect, result in words ([3]; RT4 bladder cancer tumor lineage): antiproliferative effect
- % Cell Proliferation Inhibition (intracellular DNA) DU145 (average ± E.P.M.) ([4]; 100 nM, 0.1 µM): 12 ± 4%
- % Cell Proliferation Inhibition (intracellular DNA) DU145 (average ± E.P.M.) ([4]; 300 nM, 0.3 µM): 10 ± 5%
- % Cell Proliferation Inhibition (intracellular DNA) DU145 (average ± E.P.M.) ([4]; 500 nM, 0.5 µM): 12 ± 2%
- % Cell Proliferation Inhibition (intracellular DNA) DU145 (average ± E.P.M.) ([4]; 1000 nM, 1 µM): 10 ± 3%
- % Cell Proliferation Inhibition (intracellular DNA) DU145 (average ± E.P.M.) ([4]; 3000 nM, 3 µM): 31 ± 5%
- antiproliferative effect, result in words ([4]; DU145 prostate cancer tumor lineage): antiproliferative effect
- % Cell Proliferation Inhibition (intracellular DNA) PC-3 (average ± E.P.M.) ([5]; 10 nM, 0.01 µM): 39 ± 6%
- % Cell Proliferation Inhibition (intracellular DNA) PC-3 (average ± E.P.M.) ([5]; 100 nM, 0.1 µM): 25 ± 5%
- % Cell Proliferation Inhibition (intracellular DNA) PC-3 (average ± E.P.M.) ([5]; 300 nM, 0.3 µM): 28 ± 2%
- % Cell Proliferation Inhibition (intracellular DNA) PC-3 (average ± E.P.M.) ([5]; 500 nM, 0.5 µM): 48 ± 6%
- % Cell Proliferation Inhibition (intracellular DNA) PC-3 (average ± E.P.M.) ([5]; 1000 nM, 1 µM): 40 ± 3%
- % Cell Proliferation Inhibition (intracellular DNA) PC-3 (average ± E.P.M.) ([5]; 3000 nM): 54 ± 4%
- antiproliferative effect, result in words ([5]; PC3 prostate cancer tumor lineage): antiproliferative effect
